Experimental findings from ChEMBL document CHEMBL5518235, “Identification of Novel Series of Potent and Selective Relaxin Family Peptide Receptor 1 (RXFP1) Agonists” (J Med Chem, 2024) are described below.

The term bioavailability denotes dose-corrected exposure relative to a reference, in per cent. One may read the logD as the decadic logarithm of the distribution of all forms, ionised or not, between an organic phase and buffer at a given pH. Higher therefore signals a more lipophilic compound. The clearance is a measure of how efficiently the substance is removed, as volume per time. A low value points to a low capacity for elimination. A word on the half-life: it is the time in which the quantity being followed falls by half. High values mean slow loss, low ones fast loss. By Emax is commonly meant the maximal effect, on the per cent scale that the assay sets. One may read the IC50 as the concentration needed to halve the response being measured. The EC50 is the concentration giving half of the maximal effect.

Converted amounts (≈) assume the structure as drawn. The source made the active and inactive calls. The rule behind the calls is not given here. Bounds are passed on as bounds.

Data set [1] is described as follows: Oral bioavailability in Han Wistar rat at 2.0 micromol/kg by LC-MS/MS analysis. Type of data set: ADME, organism-based. Particulars: in vivo, 2 µmol/kg.
Data set [2] can be described thus: Protein binding in rat plasma assessed as free fraction at 5 uM incubated for 18 hrs by equilibrium dialysis based LC-MS/MS analysis. Type of data set: ADME, cell-free.
Data set [3] is described as follows: Metabolic stability in rat hepatocytes assessed as unbound fraction at 1 uM incubated for 4 hrs by equilibrium dialysis based LC-MS/MS analysis. Type of data set: ADME, cell-based, Hepatocyte. A general note: In equilibrium dialysis only unbound substance equilibrates across the membrane.
The nature of data set [4]: Lipophilicity, logD of the compound in 1-octanol and phosphate buffer at pH 7.4 incubated for 3 hrs by shake flask method based LC/MS/MS analysis. Type of data set: physicochemical. Conditions: 1-octanol/phosphate buffer, pH 7.4.
A short description of data set [5]: Metabolic stability in human liver microsomes assessed as unbound fraction at 1 uM incubated for 4 hrs by equilibrium dialysis based LC-MS/MS analysis. Type of data set: ADME, Microsome. Background: Liver microsomes are a subcellular fraction often used to study metabolism.
Data set [6] concerns the target T1, Relaxin receptor 1 (Rattus norvegicus) (UniProt Q6R6I6).
T1 sequence (whole entry): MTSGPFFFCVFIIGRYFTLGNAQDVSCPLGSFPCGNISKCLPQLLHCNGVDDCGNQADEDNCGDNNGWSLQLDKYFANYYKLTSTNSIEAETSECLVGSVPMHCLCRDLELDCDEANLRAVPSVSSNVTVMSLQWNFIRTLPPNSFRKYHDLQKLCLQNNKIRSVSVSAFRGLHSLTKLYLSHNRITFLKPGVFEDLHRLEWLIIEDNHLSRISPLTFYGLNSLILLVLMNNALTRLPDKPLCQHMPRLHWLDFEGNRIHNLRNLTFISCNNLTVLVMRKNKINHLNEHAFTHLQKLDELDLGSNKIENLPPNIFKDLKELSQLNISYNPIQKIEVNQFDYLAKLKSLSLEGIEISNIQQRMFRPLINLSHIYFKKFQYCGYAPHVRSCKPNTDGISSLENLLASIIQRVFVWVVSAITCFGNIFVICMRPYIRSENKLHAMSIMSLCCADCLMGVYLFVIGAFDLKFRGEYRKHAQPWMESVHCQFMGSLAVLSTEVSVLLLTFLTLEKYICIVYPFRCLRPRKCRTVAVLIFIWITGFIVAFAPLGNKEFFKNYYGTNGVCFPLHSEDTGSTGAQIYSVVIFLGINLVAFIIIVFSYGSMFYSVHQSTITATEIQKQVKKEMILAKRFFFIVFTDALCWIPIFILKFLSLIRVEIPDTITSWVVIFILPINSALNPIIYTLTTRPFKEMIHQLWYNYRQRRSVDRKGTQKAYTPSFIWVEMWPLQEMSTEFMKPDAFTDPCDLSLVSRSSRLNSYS
The experiment in a line: Agonist activity at rat RXFP1 expressed in T-Rex-CHO-K1 cells assessed as stimulation of cAMP production at 40 uM incubated for 45 mins by HTRF assay. In kind it is functional, cell-based.

Data set [7] in a line: Volume of distribution at steady state in Han Wistar rat at 0.99 micromol/kg, iv by LC-MS/MS analysis. Type of data set: ADME, organism-based. Particulars: in vivo, dose 0.99 µmol/kg, read-out: Vdss.
A short description of data set [8]: Clearance in Han Wistar rat at 0.99 micromol/kg, iv by LC-MS/MS analysis. Type of data set: ADME, organism-based. Conditions: in vivo, dose 0.99 µmol/kg.
Data set [9] can be described thus: Metabolic stability in human liver microsomes assessed as intrinsic clearance at 1 uM incubated for 30 mins in presence of NADPH by LC-MS/MS analysis. In kind it is ADME, Microsome. Conditions: liver microsomes, read-out: CLH.
Data set [10] in a line: Half-life in Han Wistar rat at 0.99 micromol/kg, iv by LC-MS/MS analysis. Type of data set: ADME, organism-based. Conditions: in vivo, dose 0.99 µmol/kg.
Data set [11] is described as follows: Metabolic stability in cryopreserved human hepatocytes assessed as intrinsic clearance measured per 10^6 cells at 1 uM after 120 mins by LC-MS/MS analysis. Type of data set: ADME, cell-based, Hepatocyte.
Data set [12] can be described thus: Metabolic stability in Han Wistar rat hepatocytes assessed as unbound intrinsic clearance measured […] at 1 uM after 120 mins by LC-MS/MS analysis. Particulars: 2 h. Type of data set: ADME, cell-based, Hepatocyte.
The nature of data set [13]: Metabolic stability in cryopreserved human hepatocytes assessed as unbound intrinsic clearance measured per 10^6 cells at 1 uM measured after 120 mins by LC-MS/MS analysis. Conditions: 2 h. Type of data set: ADME, cell-based, Hepatocyte.
Data set [14] in a line: Metabolic stability in human liver microsomes assessed as unbound intrinsic clearance at 1 uM incubated for 30 mins in presence of NADPH by LC-MS/MS analysis. In kind it is ADME, Microsome. Conditions: 0.5 h.
The nature of data set [15]: Kinetic solubility of compound at pH 7.4 incubated for 24 hrs by shake-flask method based LC-MS/MS analysis. In kind it is physicochemical. Particulars: buffer, read-out: Kinetic_solubility.
The nature of data set [16]: Metabolic stability in Han Wistar rat hepatocytes assessed as intrinsic clearance measured per 10^6 cells at 1 uM after 120 mins by LC-MS/MS analysis. In kind it is ADME, cell-based, Hepatocyte. Conditions: read-out: CLH.
Data set [17] addresses T1, Relaxin receptor 1 (Rattus norvegicus). The experiment in a line: In vivo agonist activity at RXFP1 in Sprague-Dawley rat assessed as hemodynamic effect by measuring increase in heart rate at 3.5 mg/kg, iv administered via bolus followed by 6.0 mg/kg, iv administered via infusion for 3 hrs and measured 1 hrs post washout. In kind it is functional, organism-based.
A short description of data set [18]: Volume of distribution at steady state in Han Wistar rat at 0.73 micromol/kg, iv by LC-MS/MS analysis. In kind it is ADME, organism-based. Particulars: in vivo, dose 0.73 µmol/kg, read-out: Vdss.
The target of data set [19] is T1, Relaxin receptor 1 (Rattus norvegicus). The experiment in a line: Agonist activity at rat RXFP1 expressed in T-Rex-CHO-K1 cells assessed as stimulation of cAMP production by measuring maximal efficacy incubated for 60 mins by HTRF assay relative to control. Type of data set: functional, cell-based. Particulars: filed as agonist. On the technique in general: cAMP levels reflect the balance of adenylyl cyclase and phosphodiesterase activity.

A short description of data set [20]: Cytotoxicity against human THP-1 cells assessed as reduction of cell viability incubated for 48 hrs by resazurin reduction assay. In kind it is toxicity, cell-based.
Data set [21] has as its target T1, Relaxin receptor 1 (Rattus norvegicus). The experiment in a line: In vivo agonist activity at RXFP1 in Sprague-Dawley rat assessed as hemodynamic effect by measuring increase in blood pressure at 3.5 mg/kg, iv administered via bolus followed by 6.0 mg/kg, iv administered via infusion for 3 hrs and measured 1 hrs post washout. Type of data set: functional, organism-based.

A short description of data set [22]: Cytotoxicity against human HepG2 cells cultured as C3a spheroids assessed as reduction in cell viability. In kind it is toxicity, cell-based.
The target in data set [23] is T2, Relaxin receptor 1 (Homo sapiens, UniProt Q9HBX9).
T2 sequence (Q9HBX9 whole entry): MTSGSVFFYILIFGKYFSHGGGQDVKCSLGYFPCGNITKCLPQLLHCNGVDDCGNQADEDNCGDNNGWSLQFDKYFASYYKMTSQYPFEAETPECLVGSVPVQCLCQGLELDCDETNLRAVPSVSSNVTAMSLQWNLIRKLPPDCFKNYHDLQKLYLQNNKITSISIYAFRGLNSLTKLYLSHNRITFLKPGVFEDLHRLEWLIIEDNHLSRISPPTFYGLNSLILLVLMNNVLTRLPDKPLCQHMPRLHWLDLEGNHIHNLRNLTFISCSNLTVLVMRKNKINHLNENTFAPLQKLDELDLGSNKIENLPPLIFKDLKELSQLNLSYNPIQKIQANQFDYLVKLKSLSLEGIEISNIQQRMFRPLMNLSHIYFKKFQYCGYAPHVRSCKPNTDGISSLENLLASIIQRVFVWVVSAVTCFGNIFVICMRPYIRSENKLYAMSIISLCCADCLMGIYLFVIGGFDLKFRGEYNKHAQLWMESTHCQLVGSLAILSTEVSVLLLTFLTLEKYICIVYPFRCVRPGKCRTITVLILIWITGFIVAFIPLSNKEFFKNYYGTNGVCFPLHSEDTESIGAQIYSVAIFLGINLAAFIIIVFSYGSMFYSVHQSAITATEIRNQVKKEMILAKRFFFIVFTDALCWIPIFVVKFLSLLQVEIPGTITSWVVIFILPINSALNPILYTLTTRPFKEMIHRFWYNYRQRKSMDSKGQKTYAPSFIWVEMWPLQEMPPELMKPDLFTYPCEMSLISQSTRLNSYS
Briefly: Agonist activity at human RXFP1 expressed in T-Rex-CHO-K1 cells assessed as stimulation of cAMP production incubated for 45 mins by HTRF assay. In kind it is functional, cell-based.

Data set [24] is described as follows: Cytotoxicity against human HepG2 cells cultured under glucose condition assessed as reduction in cell viability. Type of data set: toxicity, cell-based.
The target in another data set is Bile salt export pump (Homo sapiens, UniProt O95342). The experiment in a line: Inhibition of BSEP (unknown origin) by membrane vesicle assay. Type of data set: toxicity.
Chain of Bile salt export pump (O95342 whole entry): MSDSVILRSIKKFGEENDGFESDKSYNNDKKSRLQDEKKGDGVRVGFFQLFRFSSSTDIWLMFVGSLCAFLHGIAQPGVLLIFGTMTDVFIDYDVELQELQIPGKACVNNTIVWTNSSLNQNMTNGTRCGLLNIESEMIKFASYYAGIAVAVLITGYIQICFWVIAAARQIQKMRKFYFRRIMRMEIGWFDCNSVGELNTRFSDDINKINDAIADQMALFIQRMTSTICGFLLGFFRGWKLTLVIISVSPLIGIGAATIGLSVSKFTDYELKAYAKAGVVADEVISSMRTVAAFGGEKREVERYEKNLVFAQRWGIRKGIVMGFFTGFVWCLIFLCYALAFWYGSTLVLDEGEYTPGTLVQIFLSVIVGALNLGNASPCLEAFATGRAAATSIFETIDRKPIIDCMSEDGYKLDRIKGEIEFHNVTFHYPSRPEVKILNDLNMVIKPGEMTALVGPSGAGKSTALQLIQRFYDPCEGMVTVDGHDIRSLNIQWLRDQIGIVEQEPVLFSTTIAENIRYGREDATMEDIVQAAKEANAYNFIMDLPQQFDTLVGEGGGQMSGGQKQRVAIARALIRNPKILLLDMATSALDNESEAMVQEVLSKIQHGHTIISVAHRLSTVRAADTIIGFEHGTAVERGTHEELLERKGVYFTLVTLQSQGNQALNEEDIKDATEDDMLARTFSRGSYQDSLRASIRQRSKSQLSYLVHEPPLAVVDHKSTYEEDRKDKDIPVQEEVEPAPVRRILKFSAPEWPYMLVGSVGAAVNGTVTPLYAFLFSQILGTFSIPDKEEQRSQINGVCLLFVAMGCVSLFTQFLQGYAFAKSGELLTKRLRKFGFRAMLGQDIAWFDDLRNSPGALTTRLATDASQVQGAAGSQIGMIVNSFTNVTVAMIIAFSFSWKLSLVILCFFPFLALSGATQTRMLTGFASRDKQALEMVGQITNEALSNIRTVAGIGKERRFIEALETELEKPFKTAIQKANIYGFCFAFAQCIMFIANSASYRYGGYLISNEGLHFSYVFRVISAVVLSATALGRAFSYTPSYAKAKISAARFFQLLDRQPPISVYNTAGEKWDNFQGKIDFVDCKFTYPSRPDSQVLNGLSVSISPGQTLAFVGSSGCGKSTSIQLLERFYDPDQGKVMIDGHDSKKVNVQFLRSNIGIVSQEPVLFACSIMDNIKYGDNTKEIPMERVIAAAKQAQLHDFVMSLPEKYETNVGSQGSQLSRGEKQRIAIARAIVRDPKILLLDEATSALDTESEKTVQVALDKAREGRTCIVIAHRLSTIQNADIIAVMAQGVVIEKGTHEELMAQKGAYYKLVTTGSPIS
The target in data set [25] is T3, Relaxin receptor 1 (Rattus norvegicus, UniProt Q6R6I6).
T3 sequence (Q6R6I6 whole entry): T1 sequence (whole entry)
Briefly: Agonist activity at rat RXFP1 expressed in T-Rex-CHO-K1 cells assessed as stimulation of cAMP production incubated for 60 mins by HTRF assay. In kind it is functional, cell-based.

Data set [26] can be described thus: Clearance in Han Wistar rat at 0.73 micromol/kg, iv by LC-MS/MS analysis. Particulars: in vivo, dose 0.73 µmol/kg. Type of data set: ADME, organism-based.
Data set [27] in a line: Half-life in Han Wistar rat at 0.73 micromol/kg, iv by LC-MS/MS analysis. In kind it is ADME, organism-based. Particulars: in vivo, dose 0.73 µmol/kg.
Data set [28] concerns the target Voltage-gated inwardly rectifying potassium channel KCNH2 (Homo sapiens, UniProt Q12809). Briefly: Inhibition of human ERG by automated electrophysiology recording. Type of data set: toxicity.
Data set [29] in a line: Cytotoxicity against human HepG2 cells cultured under galactose condition assessed as reduction in cell viability. In kind it is toxicity, cell-based.
Data set [30] addresses T4, Relaxin receptor 1 (Homo sapiens) (UniProt Q9HBX9).
T4 sequence (whole entry): T2 sequence (Q9HBX9 whole entry)
Briefly: Agonist activity at human RXFP1 expressed in T-Rex-CHO-K1 cells assessed as stimulation of cAMP production by measuring maximal efficacy at 50 uM incubated for 45 mins by HTRF assay relative to control. Conditions: filed as agonist. Type of data set: functional, cell-based.

Data set [31] in a line: Unbound Cmax in Sprague-Dawley rat at 3.5 mg/kg, iv administered via bolus followed by 6.0 mg/kg, iv administered via infusion for 3 hrs and measured 1 hrs post washout by LC-MS/MS analysis. Conditions: in vivo. Type of data set: ADME, organism-based.

Chain of Voltage-gated inwardly rectifying potassium channel KCNH2 (Q12809 whole entry): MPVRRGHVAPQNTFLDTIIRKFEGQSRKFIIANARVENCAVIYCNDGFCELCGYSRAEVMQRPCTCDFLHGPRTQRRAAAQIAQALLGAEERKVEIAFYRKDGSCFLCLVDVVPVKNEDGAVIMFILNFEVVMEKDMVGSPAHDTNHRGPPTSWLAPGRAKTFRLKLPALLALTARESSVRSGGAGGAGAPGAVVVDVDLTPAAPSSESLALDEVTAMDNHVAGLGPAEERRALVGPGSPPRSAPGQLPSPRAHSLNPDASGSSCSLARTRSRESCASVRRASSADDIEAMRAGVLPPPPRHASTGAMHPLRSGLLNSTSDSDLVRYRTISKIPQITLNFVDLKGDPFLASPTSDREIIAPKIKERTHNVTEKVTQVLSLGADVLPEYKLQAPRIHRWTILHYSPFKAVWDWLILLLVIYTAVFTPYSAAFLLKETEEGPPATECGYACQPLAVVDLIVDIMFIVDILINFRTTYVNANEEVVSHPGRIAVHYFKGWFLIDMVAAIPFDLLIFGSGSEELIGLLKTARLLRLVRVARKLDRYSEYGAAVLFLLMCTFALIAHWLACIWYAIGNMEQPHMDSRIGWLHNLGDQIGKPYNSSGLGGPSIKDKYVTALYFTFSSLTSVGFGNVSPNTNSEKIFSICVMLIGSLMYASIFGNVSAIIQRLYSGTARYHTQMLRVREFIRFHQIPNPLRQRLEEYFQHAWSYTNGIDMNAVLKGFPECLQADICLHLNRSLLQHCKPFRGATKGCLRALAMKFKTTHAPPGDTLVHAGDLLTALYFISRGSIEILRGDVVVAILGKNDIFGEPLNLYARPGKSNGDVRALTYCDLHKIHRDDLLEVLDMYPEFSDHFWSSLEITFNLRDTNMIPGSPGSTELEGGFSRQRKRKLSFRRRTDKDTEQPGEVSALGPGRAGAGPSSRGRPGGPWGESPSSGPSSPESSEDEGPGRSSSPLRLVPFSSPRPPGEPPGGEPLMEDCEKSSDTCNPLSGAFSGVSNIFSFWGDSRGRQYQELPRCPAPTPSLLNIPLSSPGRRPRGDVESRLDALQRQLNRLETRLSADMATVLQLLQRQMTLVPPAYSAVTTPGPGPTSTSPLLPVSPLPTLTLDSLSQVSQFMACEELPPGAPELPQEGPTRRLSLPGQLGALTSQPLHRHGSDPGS

In turn, `CC(C)Oc1ccccc1C(=O)Nc1ccccc1C(=O)Nc1cccc(S(=O)(=O)C(F)(F)F)c1` gave a bioavailability in data set [1] of 40%. Moreover, the fraction unbound at 18 h, 5 µM in [2] is less than 0.0002. Also, the fraction unbound at 4 h, 1 µM in [3] was 4e-05; in data set [5], 2e-05. The logD at 3 h in data set [4] is greater than 4. Moreover, the outcome in data set [6] was inactive. Further, the Vd in data set [7] came to 7.7 L/kg. Further, in data set [8], the clearance came to 1.8 L/h/kg. In addition, the microsomal CLint at 1 µM in [9] is 55 µL/min/mg. This molecule also had a half-life in data set [10] of 4.3 h. Also, the hepatocyte CLint at 1 µM in [11] (cryopreserved hepatocytes, read-out: CLH) stood at 12.6 µL/min/1e6 cells; in data set [16], 22 µL/min/1e6 cells. Further, the CL free in data set [12] is 5.4 µL/min; in [13] it was 3.07 10^3uL/min; in data set [14], 37 10^3uL/min/mg. For the same molecule, the solubility kinetic at 24 h in data set [15] stood at 1 µM (≈ 0.507 µg/mL).

As to `COc1cc(F)c(O[C@H]2CC[C@@](C)(C(=O)O)CC2)cc1C(=O)N[C@H]1[C@@H]2CC[C@@H](C2)[C@H]1C(=O)Nc1ccc(F)c(S(F)(F)(F)(F)F)c1`, the result in data set [17] and in [21] was inactive. In data set [2], the fraction unbound at 18 h, 5 µM amounted to 0.0013. This molecule registered a logD at 3 h in data set [4] of 4.5. For the same molecule, the Vd in data set [18] turned out to be 1.5 L/kg. For the same molecule, the Emax in [19] was 128%; in data set [30] it was 103%. In addition, the half-maximal inhibitory concentration (IC50) at 48 h in [20] was 11 µM. Also, the concentration for half-maximal inhibition (IC50) stood at 34 µM in data set [22]; 134 µM in data set [24]; 97 µM at Bile salt export pump; 33 µM in data set [28]; 122 µM in [29]. Moreover, the concentration giving a half-maximal response (EC50) on Relaxin receptor 1 [23] was 3.98 µM; at Relaxin receptor 1 [25], 7.94 µM. In addition, in data set [11] (hepatocytes, 2 h, 1 µM), the CLH was found to be 49 µL/min/1e6 cells. The same molecule came in with a clearance in [26] of 0.84 L/h/kg. Further, the half-life in data set [27] is 2.3 h. Besides, the CL free in data set [12] is 2 µL/min; in [13] it was 7 10^3uL/min. In [16], the hepatocyte CLint at 1 µM was 14 µL/min/1e6 cells. The fCmax in [31] is 12 nM.
